Laboratory results reported in US9873670B2, “Arylquinoline and analog compounds and use thereof to treat cancer” (UNIVERSITY OF KENTUCKY RESEARCH FOUNDATION, priority 2013, dated 2018).
“Also recorded” adds a separate entry of the source.

Experiments:
vimentin-deficient cells = assay: Par-4 secretion from vimentin-deficient cells; assay type: cell-based
[1] = tested on: normal/immortalized human cells; assay: Par-4 secretion from normal/immortalized human cells; assay type: cell-based
Protocol: In another aspect, the subject technology provides assays for screening test compounds that interfere with vimentin binding to PAR-4 or which cause release of vimentin-bound PAR-4. In a typical assay, cells, such as HEL cells, are seeded onto an appropriate support, such as 60-mm plates containing supplemented growth medium (e.g., supplemented with 0.1% serum) at a desired confluency, such as 40-70% confluency, and treated with the test compound (e.g., 500 nM) or control vehicle. The cells are allowed to grow for a period of time, such as 24 hours, after which the conditioned medium (CM) is concentrated (e.g., concentrated 30× to 100 μl using Millipore tubes (Amicon Ultra centrifugal filters, Ultracel-10K) by 15 min centrifugation at 4500 rpm). The concentrated CM is then subjected to co-immunoprecipitation using detectably labeled PAR-4 and vimentin antibodies in the presence of various concentrations of purified PAR-4 and the precipitated proteins are resolved by SDS-PAGE and analyzed by Western blot analysis. The amount of immunoprecipitated PAR-4-vimentin complex is compared to that of control samples. For example, chemiluminescent signals may be quantified in the BIO-RAD Molecular Imager ChemiDoc XRS+Imaging system using Quantity One software. […]

PC-3MM2 = assay: Apoptosis, PC-3MM2 cells; assay type: cell-based, human; settings: 500 nM
Protocol: (§1) See Hebbar, N., Wang, C. & Rangnekar, V. M. J Cell Phys 227, 3715-3721 (2012) and Shrestha-Bhattarai, T., Hebbar, N. & Rangnekar, V. M. Cancer Cell 24, 3-5 (2013). A total of three independent experiments were performed; and approximately 500 cells were scored in each experiment for apoptosis under a fluorescent microscope. Cell surface GRP78 expression on the cancer cell surface was quantified by FACS analysis in the Flow Cytometry Shared Resource Facility, Markey Cancer Center as previously described. See Hebbar, N., Wang, C. & Rangnekar, V. M. J Cell Phys 227, 3715-3721 (2012).

[2] = molecular target: T1, binding of Par-4 to vimentin (Homo sapiens, UniProt P08670); assay: Co-immunoprecipitation and immunocytochemistry of Par-4 and vimentin; assay type: cell-based; settings: cells treated with compound
T1 construct: the Par-4 antibody co-immunoprecipitated endogenous vimentin; endogenous in cells
Protocol: (§2) Co-Immunoprecipitation and Western blot analysis: Protein extracted from cell lysates was filtered, pre-cleared with 25 μL (bed volume) of protein G-Sepharose beads and immunoprecipitated with 1 μg of respective antibodies. The eluted proteins were resolved by SDS-PAGE, and subjected to Western blot analysis as described.

[3] = tested on: panel of lung tumor cells; assay: Par-4 secretion from lung tumor cells; assay type: cell-based
PC-3 cells = assay: Apoptosis, PC-3 cells; assay type: cell-based, human; settings: 500 nM
Protocol: as §1

LNCaP = assay: Apoptosis, LNCaP cells; assay type: cell-based, human; settings: 500 nM
Protocol: as §1

[4] = tested on: mouse embryonic fibroblast (MEF) cells; assay: Par-4 secretion from normal mouse fibroblasts (Western blot of conditioned medium); assay type: cell-based
Protocol: In another aspect, the subject technology provides assays for screening test compounds that interfere with vimentin binding to PAR-4 or which cause release of vimentin-bound PAR-4. In a typical assay, cells, such as HEL cells, are seeded onto an appropriate support, such as 60-mm plates containing supplemented growth medium (e.g., supplemented with 0.1% serum) at a desired confluency, such as 40-70% confluency, and treated with the test compound (e.g., 500 nM) or control vehicle. The cells are allowed to grow for a period of time, such as 24 hours, after which the conditioned medium (CM) is concentrated (e.g., concentrated 30× to 100 μl using Millipore tubes (Amicon Ultra centrifugal filters, Ultracel-10K) by 15 min centrifugation at 4500 rpm). The concentrated CM is then subjected to co-immunoprecipitation using detectably labeled PAR-4 and vimentin antibodies in the presence of various concentrations of purified PAR-4 and the precipitated proteins are resolved by SDS-PAGE and analyzed by Western blot analysis. The amount of immunoprecipitated PAR-4-vimentin complex is compared to that of control samples. For example, chemiluminescent signals may be quantified in the BIO-RAD Molecular Imager ChemiDoc XRS+Imaging system using Quantity One software. Induction of Par-4 secretion by the test drug (e.g., 500 nM), as judged by this Western blot analysis procedure, will indicate dissociation of Par-4 from vimentin. […] For such experiments, cells may be treated with the test drug (e.g., 500 nM) or vehicle for an appropriate period of time, such as 24 hours, and then cell lysates are prepared and subjected to immunoprecipitation using an appropriate amount of a Par-4 antibody, vimentin antibody or control IgG antibody by using any standard immunoprecipitation procedure. Following […], the complexes are resolved, preferably by Western blot analysis as described above. If the drug inhibits the binding of Par-4 to vimentin, it will be reflected in the lack of co-immunoprecipitation of Par-4 with the vimentin antibody, and co-immunoprecipitation of vimentin with the Par-4 antibody.
as §2
To identify Par-4 secretagogues, we synthesized and screened 3-arylquinolines as well as related quinolones and quinothiolones for the secretion of Par-4 protein from normal fibroblasts under conditions that are not toxic to the cells.
We screened representative members of each of these heterocyclic families on a compound-by-compound basis for the secretion of Par-4 protein from normal mouse fibroblasts under conditions that were not toxic to the cells. Initial expectations were that these heterocycles would serve as Nutlin-3a surrogates and inhibit MDM2, but studies reported herein established a completely different mechanism of action, reflecting that the structural dissimilarities between these heterocycles and Nutlin-3a outweighed the similarities that led to their initial selection for screening.

[5] = tested on: cancer cells co-cultured with Par-4-/- MEFs; assay: Apoptosis in co-cultures of Par-4-/- MEFs and cancer cells; assay type: cell-based; settings: 500 nM
Protocol: Top: Cancer cells were co-cultured with MEFs and treated with Arylquin 1 (500 nM) or vehicle and tested for apoptosis. Bottom: Serum from mice injected with Arylquin 1 (Aq) or corn oil vehicle (V), was examined by Western blot analysis (not shown). Aliquots of serum from these mice were either directly added to the growth medium of cells in culture, or incubated with the indicated antibody, and then added to the growth medium of PC-3 MM2 cells to test for apoptosis.
as §1

[6] = tested on: diverse cancer cells (lung cancer A549, H460, LLC1, KP7B; prostate cancer PC-3 MM2, DU145, LNCaP); assay: Apoptosis by ICC for active caspase-3, cancer cells; assay type: cell-based, human, mouse
Protocol: Normal cells (MEFs, HELs, HBEC, PrE, prostate stromal cells PrS) or lung cancer cells (human A549 and H460, mouse LLC1 and KP7B) and prostate cancer cells (PC-3 MM2, DU145, LNCaP) were treated with the indicated amounts (0.5, 1 and 10 μM) of Arylquin 1 or vehicle (V) for 24 h, and apoptosis was determined by ICC for active caspase-3. Data shown represent mean values from three independent experiments±s.d. Asterisks (**) or (*) indicate statistical significance (P<0.0001) or (P<0.001), respectively, by the Student t test.
as §1

T1 sequence (P08670 2-466 limits assumed): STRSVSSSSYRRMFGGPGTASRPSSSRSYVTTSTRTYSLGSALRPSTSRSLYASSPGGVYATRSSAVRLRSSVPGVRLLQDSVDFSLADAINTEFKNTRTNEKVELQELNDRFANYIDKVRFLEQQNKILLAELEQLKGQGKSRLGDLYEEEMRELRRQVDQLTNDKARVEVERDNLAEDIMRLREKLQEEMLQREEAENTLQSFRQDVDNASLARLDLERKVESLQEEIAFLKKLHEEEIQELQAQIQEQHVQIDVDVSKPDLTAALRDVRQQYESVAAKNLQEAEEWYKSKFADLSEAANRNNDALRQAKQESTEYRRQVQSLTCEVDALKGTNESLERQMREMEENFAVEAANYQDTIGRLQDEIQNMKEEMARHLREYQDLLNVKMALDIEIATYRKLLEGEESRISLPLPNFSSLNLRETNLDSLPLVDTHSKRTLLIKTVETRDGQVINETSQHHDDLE

## CN(C)c1ccc2cc(-c3ccccc3F)c(N)nc2c1 [Arylquin 1, 3-(2-fluorophenyl)-N^7,N^7-dimethylquinoline-2,7-diamine]
vimentin-deficient cells
  Par-4 secretion: did not further induce Par-4 secretion
[1]; nanomolar concentrations
  secretion of Par-4 from normal fibroblasts and epithelial cells: dose-dependent secretion of Par-4 at nanomolar concentrations
[1]; normal/immortalized human cells
  Par-4 secretion: induced robust secretion of Par-4
PC-3MM2
  apoptosis: induced apoptosis
[2]
  Par-4 co-immunoprecipitation and co-localization with vimentin: neither Par-4 co-immunoprecipitation nor co-localization with vimentin
  vimentin expression: not associated with inhibition of vimentin expression
[3]
  Par-4 secretion: failed to induce the secretion of Par-4
PC-3 cells
  apoptosis: induced apoptosis
LNCaP
  apoptosis: not in LNCaP or DU145 cells
[4]; MEF cells
  Par-4 secretion: dose-dependent secretion
[4]; normal mouse fibroblasts, conditions not toxic to the cells
  level of Par-4 secretion, structure-activity comparison among analogs: most active; also recorded: highest levels of Par-4 secretion
[5]
  apoptosis of cancer cells in co-culture: did not induce apoptosis
[6]; 500 nM
  direct apoptosis: did not directly induce apoptosis
[6]; 0.5, 1 and 10 μM, 24 h
  apoptosis: induced the dose-dependent apoptosis in cancer cells
